Experiments:
[1] = Visual cytotoxicity in BSC-1 cells; type: cell-based, African green monkey; conditions: monkey, visual cytotoxicity at time of HSV-1 plaque enumeration, read-out: 50% Inhibitory Concentration, Cytotoxicity BSC
Excerpt: Cytotoxicity produced in HFF and BSC-1 cells was estimated by visual scoring of cells not affected by virus infection in the HCMV and HSV-1 plaque reduction assays. Cytopathology was estimated at 35- and 60-fold magnification and scored on a zero to four plus basis. Wells were scored on the day of staining.

HCMV DNA synthesis = HCMV DNA synthesis by dot-blot hybridization; type: cell-based, human cytomegalovirus; conditions: Human betaherpesvirus 5; Table 2; read-out: 50% Inhibitory Concentration, HCMV DNA Synthesis
Protocol: The amount of HCMV DNA synthesis was determined in two types of experiments: (a) as an integral part of HCMV titer (yield) reduction experiments and (b) as separate experiments to determine only the amount of viral DNA synthesis in the absence or presence of test compounds.
HFF cells were planted in 25 cm^2 flasks and infected with HCMV as described in part 2 and incubated at 37° C. Before harvesting at selected times by the addition of 0.1 volume of 0.2M EDTA, an aliquot of medium was removed for determination of HCMV titer. After harvesting cells into the medium, aliquots were retained for determination of HCMV DNA by hybridization.
HFF cells were planted in 96-well cluster plates at 20,000 cell/well in 200 μl of growth medium [MEM(E)] with 1.1 gm/liter NaHCO3 and 10% fetal bovine serum. […]
Following hybridization, the membrane was washed sequentially in 100 ml 2×SSC at room temperature twice each for 5 minutes, 100 ml 2×SCC plus 1% SDS at 65° C. twice each for 30 minutes and then 100 ml 0.1×SSC at room temperature twice each for 30 minute. The membrane was dried at room temperature and each filtration spot was cut from the membrane and placed into 4 ml of toluene/DPO scintillant and hybridized label counted in a liquid scintillation spectrometer.

MCMV = test: Mortality of mice infected with murine cytomegalovirus; type: in vivo
Protocol: Compound UMJD 183 was tested in mice infected with murine cytomegalovirus (MCMV). This animal model has been recognized as having capabilities predictive of efficacy in humans.
Compound UMJD 183 and the drug ganciclovir (DHPG) were administered to groups of 15 mice each at doses and times of administration shown in Table 3. Each compound at all doses was administered intraperitoneally twice daily for five days beginning at either 6, 24 or 48 hours after virus inoculation. Animals were observed daily and the number dying each day recorded.
^a Animlas were treated i.p. twice daily for 5 days with the doses
stated above. Treatment was initiated at the times indicated following

[2] = 0.6 mg/kg i.p. twice daily, from 6 h
[3] = 0.6 mg/kg i.p. twice daily, from 24 h
[4] = 0.6 mg/kg i.p. twice daily, from 48 h
[5] = 1.9 mg/kg i.p. twice daily, from 6 h
[6] = 1.9 mg/kg i.p. twice daily, from 24 h
[7] = 1.9 mg/kg i.p. twice daily, from 48 h
[8] = 5.6 mg/kg i.p. twice daily, from 6 h
[9] = 5.6 mg/kg i.p. twice daily, from 24 h
[10] = 5.6 mg/kg i.p. twice daily, from 48 h
[11] = 16.7 mg/kg i.p. twice daily, from 6 h
[12] = 16.7 mg/kg i.p. twice daily, from 24 h
[13] = 16.7 mg/kg i.p. twice daily, from 48 h

Nc1nc(O)c2ncn(COC(CO)CO)c2n1 [Ganciclovir (DHPG), reference compound]
CC50 [1]: > 100000 nM
IC50 (HCMV DNA synthesis): 1200 nM
MDD (Mean Day of Death) (MCMV; [2]): 4.6
Mortality Percent (MCMV; [2]): 93%
MDD (Mean Day of Death) (MCMV; [3]): 5.4
Mortality Percent (MCMV; [3]): 80%
MDD (Mean Day of Death) (MCMV; [4]): 5.3
Mortality Percent (MCMV; [4]): 93%
MDD (Mean Day of Death) (MCMV; [5]): 5.4
Mortality Percent (MCMV; [5]): 33%
MDD (Mean Day of Death) (MCMV; [6]): 4.9
Mortality Percent (MCMV; [6]): 80%
MDD (Mean Day of Death) (MCMV; [7]): 4.9
Mortality Percent (MCMV; [7]): 73%
MDD (Mean Day of Death) (MCMV; [8]): 4.2
Mortality Percent (MCMV; [8]): 33%
MDD (Mean Day of Death) (MCMV; [9]): 5.3
Mortality Percent (MCMV; [9]): 47%
MDD (Mean Day of Death) (MCMV; [10]): 5.5
Mortality Percent (MCMV; [10]): 67%
MDD (Mean Day of Death) (MCMV; [11]): 3.8
Mortality Percent (MCMV; [11]): 27%
MDD (Mean Day of Death) (MCMV; [12]): 5.3
Mortality Percent (MCMV; [12]): 47%
MDD (Mean Day of Death) (MCMV; [13]): 5.5
Mortality Percent (MCMV; [13]): 53%
